Where two headings read alike, the source gives them in different places.
Target: T1, human mAChR M4 (Homo sapiens, UniProt P08173)
T1 construct: expressed in transfected cells
T1 sequence (P08173 1-479): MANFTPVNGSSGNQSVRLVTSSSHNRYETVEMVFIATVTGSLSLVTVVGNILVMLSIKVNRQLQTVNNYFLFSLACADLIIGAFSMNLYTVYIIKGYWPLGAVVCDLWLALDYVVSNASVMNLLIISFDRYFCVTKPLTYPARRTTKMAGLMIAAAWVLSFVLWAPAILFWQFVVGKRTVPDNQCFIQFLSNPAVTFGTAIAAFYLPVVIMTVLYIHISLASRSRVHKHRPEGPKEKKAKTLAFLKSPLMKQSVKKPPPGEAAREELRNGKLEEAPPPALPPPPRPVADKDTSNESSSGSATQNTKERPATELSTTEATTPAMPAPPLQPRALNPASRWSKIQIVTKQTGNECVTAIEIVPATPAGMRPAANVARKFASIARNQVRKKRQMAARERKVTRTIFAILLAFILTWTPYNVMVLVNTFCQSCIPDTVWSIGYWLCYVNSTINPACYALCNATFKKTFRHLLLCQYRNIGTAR
Experiment: mAChR M4 cell-based functional assay (calcium mobilization, CHO-K1 hM4-Gqi5 cells)
Conditions: for Emax at 30 µM: CHO-K1, % ACh maximum at 30 μM; for EC50: increase in the EC20 acetylcholine response, CHO-K1 hM4-Gqi5 cells
How it was run: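 CHO-K1 cells stably expressing human M4 with chimeric Gqi5, loaded with Fluo-4 AM; compounds given as 11-point 1:3 curves and calcium flux read on FDSS at 1 Hz. Acetylcholine EC20 added at 144 s, EC80 at 230 s; agonist, PAM (EC20 potentiation) and antagonist (EC80 inhibition) EC50/Emax from four-parameter fits.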

[1] = positive allosteric modulator activity, read-out: Human M4 EC50

SMILES	Emax at 30 µM (human M4) [%]	EC50 [1] [nM]	Emax (% ACh maximum at 30 μM, human M4) [%]	Emax (CHO-K1) [%]	EC50 (Human M4 EC50, positive allosteric modulator activity) [nM]
Cc1cc(C(=O)NCc2ccc(-n3ccnc3)nc2)cnc1N1CCc2ncccc2C1 [compound 148, 6-(7,8-dihydro-5H-1,6-naphthyridin-6-yl)-N-[(6-imidazol-1-yl-3-pyridyl)methyl]-5-methyl-pyridine-3-carboxamide]	67	3540			
Cc1cnc(F)cc1-c1cnc2c(c1)CN(c1nnc(C#N)c(C)c1C)CC2 [compound 72, 6-[3-(2-fluoro-5-methyl-4-pyridyl)-7,8-dihydro-5H-1,6-naphthyridin-6-yl]-4,5-dimethyl-pyridazine-3-carbonitrile]	78	233			
Cc1ncc(CNC(=O)c2cnc(N3CCc4ncccc4C3)c(C)c2)s1 [compound 127, 6-(7,8-dihydro-5H-1,6-naphthyridin-6-yl)-5-methyl-N-[(2-methylthiazol-5-yl)methyl]pyridine-3-carboxamide]	67	2620			
Cc1cc(C(=O)NC(C)C)cnc1N1CCc2ncccc2C1 [compound 58, 6-(7,8-dihydro-5H-1,6-naphthyridin-6-yl)-N-isopropyl-5-methyl-pyridine-3-carboxamide]	51	≥ 10000			
Cc1nc(Cl)c(C)c(N2CCc3ncc(C(F)(F)F)cc3C2)n1 [compound 200, 6-(6-chloro-2,5-dimethyl-pyrimidin-4-yl)-3-(trifluoromethyl)-7,8-dihydro-5H-1,6-naphthyridine]	96	128			
Cc1cc(C(=O)NCc2ccncc2)cnc1N1CCc2ncc(-c3cnn(C)c3)cc2C1 [compound 176, 5-methyl-6-[3-(1-methylpyrazol-4-yl)-7,8-dihydro-5H-1,6-naphthyridin-6-yl]-N-(4-pyridylmethyl)pyridine-3-carboxamide]	89	188			
Cc1cc(C(=O)N2CCCC2)nnc1N1CCc2ncc(C(F)(F)F)cc2C1 [Example 502, (5-methyl-6-(3-(trifluoromethyl)-7,8-dihydro-1,6-naphthyridin-6(5H)-yl)pyridazin-3-yl)(pyrrolidin-1-yl)methanone]	105	3530			
Cc1cc(C(=O)NCc2cccc(F)c2)cnc1N1CCc2ncccc2C1 [compound 159, 6-(7,8-dihydro-5H-1,6-naphthyridin-6-yl)-N-[(3-fluorophenyl)methyl]-5-methyl-pyridine-3-carboxamide]	69	3130			
Cc1cc(C#N)cnc1N1CCc2ncc(-c3cnn(CC4CC4)c3)cc2C1 [compound 102, 6-[3-[1-(cyclopropylmethyl)pyrazol-4-yl]-7,8-dihydro-5H-1,6-naphthyridin-6-yl]-5-methyl-pyridine-3-carbonitrile]	86	362			
Cc1nc(N2CCCC2)nc(N2CCc3ncc(Nc4ccnn4C)cc3C2)c1C [compound 277, 6-(5,6-dimethyl-2-(pyrrolidin-1-yl)pyrimidin-4-yl)-N-(1-methyl-1H-pyrazol-5-yl)-5,6,7,8-tetrahydro-1,6-naphthyridin-3-amine]	98	92			
Cc1cc(C#N)nnc1N1CCc2ncc(N3CCO[C@H](C)C3)cc2C1 [Example 397, (R)-5-methyl-6-(3-(2-methylmorpholino)-7,8-dihydro-1,6-naphthyridin-6(5H)-yl)pyridazine-3-carbonitrile]	72	441			
Cc1cc(C(=O)NC2CCOCC2)cnc1N1CCc2ncccc2C1 [compound 122, 6-(7,8-dihydro-5H-1,6-naphthyridin-6-yl)-5-methyl-N-tetrahydropyran-4-yl-pyridine-3-carboxamide]	55	≥ 10000			
Cc1cc(C(=O)NC2(C#N)CC2)nnc1N1CCc2ncc(N3CCCn4nccc43)cc2C1 [Example 525, N-(1-cyanocyclopropyl)-6-(3-(6,7-dihydropyrazolo[1,5-a]pyrimidin-4(5H)-yl)-7,8-dihydro-1,6-naphthyridin-6(5H)-yl)-5-methylpyridazine-3-carboxamide]	82	11			
Cc1cc(C#N)cnc1N1CCc2ncc(Nc3c(F)cccc3Cl)cc2C1 [compound 111, 6-[3-(2-chloro-6-fluoro-anilino)-7,8-dihydro-5H-1,6-naphthyridin-6-yl]-5-methyl-pyridine-3-carbonitrile]	93	345			
Cc1cc(C(=O)N2Cc3cccnc3C2)nnc1N1CCc2ncc(N3CCCn4nccc43)cc2C1 [Example 513, (5,7-dihydro-6H-pyrrolo[3,4-b]pyridin-6-yl)(6-(3-(6,7-dihydropyrazolo[1,5-a]pyrimidin-4(5H)-yl)-7,8-dihydro-1,6-naphthyridin-6(5H)-yl)-5-methylpyridazin-3-yl)methanone]	90	51			
[2H]C1([2H])Cc2ncc(-c3ccnn3C)cc2C([2H])([2H])N1c1nnc(C#N)cc1C [Example 617, 5-methyl-6-(3-(1-methyl-1H-pyrazol-5-yl)-7,8-dihydro-1,6-naphthyridin-6(5H)-yl-5,5,7,7-d4)pyridazine-3-carbonitrile]	88	2460			
Cc1cc(C(=O)NCc2cnc3c(c2)CCC3)cnc1N1CCc2ncccc2C1 [compound 155, N-(6,7-dihydro-5H-cyclopenta[b]pyridin-3-ylmethyl)-6-(7,8-dihydro-5H-1,6-naphthyridin-6-yl)-5-methyl-pyridine-3-carboxamide]	63	3910			
Cc1cnccc1CNC(=O)c1cnc(N2CCc3ncccc3C2)c(C)c1 [compound 130, 6-(7,8-dihydro-5H-1,6-naphthyridin-6-yl)-5-methyl-N-[(3-methyl-4-pyridyl)methyl]pyridine-3-carboxamide]	82	507			
Cc1cc(C#N)cnc1N1Cc2cc(N3CCOCC3)cnc2C(C)C1 (single isomer, unassigned) [Example 406, 5-methyl-6-(8-methyl-3-morpholino-7,8-dihydro-1,6-naphthyridin-6(5H)-yl)nicotinonitrile]		326	96		
Cc1cc(C#N)cnc1N1CCc2ncc(-c3ccc(C4CC4)nc3)cc2C1 [compound 186, 6-[3-(6-cyclopropyl-3-pyridyl)-7,8-dihydro-5H-1,6-naphthyridin-6-yl]-5-methyl-pyridine-3-carbonitrile]	97	318			
Cc1cc(C#N)cnc1N1CCc2ncc(C3CC3)cc2C1 [Example 330, 6-(3-cyclopropyl-7,8-dihydro-1,6-naphthyridin-6(5H)-yl)-5-methylnicotinonitrile]				85	71
Cc1nc(Cl)c(C)c(N2CCc3ncc(Nc4c(F)cccc4F)cc3C2)n1 [compound 89, 6-(6-chloro-2,5-dimethyl-pyrimidin-4-yl)-N-(2,6-difluorophenyl)-7,8-dihydro-5H-1,6-naphthyridin-3-amine]	80	716			
Cc1nn(C)cc1-c1cnc2c(c1)CN(c1ncc(C(N)=O)cc1C(F)(F)F)CC2 [Example 487, 6-(3-(1,3-dimethyl-1H-pyrazol-4-yl)-7,8-dihydro-1,6-naphthyridin-6(5H)-yl)-5-(trifluoromethyl)nicotinamide]	38	2880			
FC(F)(F)c1cnc2c(c1)CN(c1nc(Cl)nc3c1COC3)CC2 [compound 281, 2-chloro-4-(3-(trifluoromethyl)-7,8-dihydro-1,6-naphthyridin-6(5H)-yl)-5,7-dihydrofuro[3,4-d]pyrimidine]		3290			
Cc1nc(Cl)c(C)c(N2CCc3ncc(C(F)F)cc3C2)n1 [compound 215, 6-(6-chloro-2,5-dimethylpyrimidin-4-yl)-3-(difluoromethyl)-5,6,7,8-tetrahydro-1,6-naphthyridine]		137		93	
Cc1c(C#N)nnc(N2CCc3ncc(N4CCO[C@H](c5ccccc5)C4)cc3C2)c1C [Example 376, (R)-4,5-dimethyl-6-(3-(2-phenylmorpholino)-7,8-dihydro-1,6-naphthyridin-6(5H)-yl)pyridazine-3-carbonitrile]	90	1380			
Cc1cc(C#N)nnc1N1CCc2ncc(N3CCCn4nc(C(F)(F)F)cc43)cc2C1 [Example 413, 5-methyl-6-(3-(2-(trifluoromethyl)-6,7-dihydropyrazolo[1,5-a]pyrimidin-4(5H)-yl)-7,8-dihydro-1,6-naphthyridin-6(5H)-yl)pyridazine-3-carbonitrile]	102	257			
Cc1cc(C#N)cnc1N1CCc2ncc(N(C)c3ccnn3C)cc2C1 [Example 331, 5-methyl-6-(3-(methyl(1-methyl-1H-pyrazol-5-yl)amino)-7,8-dihydro-1,6-naphthyridin-6(5H)-yl)nicotinonitrile]	86	43			
Cc1cc(C#N)cnc1N1CCc2ncc(-c3cnn(C4CCCC4)c3)cc2C1 [compound 98, 6-[3-(1-cyclopentylpyrazol-4-yl)-7,8-dihydro-5H-1,6-naphthyridin-6-yl]-5-methyl-pyridine-3-carbonitrile]	79	407			
